From patent US20040248764A1 (priority 2001, published 2004)
≈ marks a conversion by molar mass, not a printed value. Where “and” joins values, the source holds several entries; their conditions need not be identical. Equal values may be shown once. Read-outs that look alike come from different tables or passages of the source.

Key:
Xylella = assay type: cell-based
[1] = system: Xylella sp. strains Shiraz, Melody, Coyaga; assay type: cell-based; details: 10^8 CFU
Spiroplasma citri = assay type: cell-based
S. melliferum = assay type: cell-based
S. apis = assay type: cell-based
S. floricola = assay type: cell-based
Mycoplasma iowae = assay type: cell-based
[2] = system: aster yellow phytoplasma (AYP); assay type: in vivo, Catharanthus roseus
[3] = system: Xylella fastidiosa strains; test: microbe, parasite or virus in culture; assay type: cell-based; details: for MIC: Xylella fastidiosa
Xylella fastidiosa = assay type: in vivo, grapevines
[4] = system: X. fastidiosa-infected grapevines; details: in vivo
[5] = system: X. fastidiosa-infected grapevines; details: in vivo; remark: listed apart in the source
grape = details: in vivo
healthy vines = details: in vivo
E. coli = details: cited from earlier work

**Q.** With `CC(C)=CCCC(C)=CC=O` [citral, 3,7-dimethyl-2,6-octadien-1-al] as the compound, how does the “effect on Xylella” value (Xylella; 62.5 ppm citral) read?
**A.** No complete kill but get stasis

**Q.** What about the “kill of Xylella” value (Xylella; 125 ppm citral) of the same compound?
**A.** 100% kill

**Q.** And the “kill of Xylella” value (Xylella; 500 ppm citral)?
**A.** 100% kill

**Q.** And the “Xylella growth (CFU)” value ([1]; strain Coyaga, 3.25 ppm)?
**A.** TNTC

**Q.** And the “Xylella growth (CFU)” value ([1]; strain Coyaga, 62.5 ppm)?
**A.** TNTC

**Q.** What about the “Xylella growth (CFU)” value ([1]; strain Melody, 3.25 ppm) of the same compound?
**A.** TNTC

**Q.** And the “Xylella growth (CFU)” value ([1]; strain Melody, 62.5 ppm)?
**A.** TNTC

**Q.** What about the “Xylella growth (CFU)” value ([1]; strain Shiraz, 3.25 ppm) of the same compound?
**A.** TNTC

**Q.** And the “Xylella growth (CFU)” value ([1]; strain Shiraz, 62.5 ppm)?
**A.** TNTC**

**Q.** And the “cells that survived the treatment” value (Spiroplasma citri)?
**A.** no cells

**Q.** And the “cells that survived the treatment” value (S. melliferum)?
**A.** no cells

**Q.** What about the color changing units (S. apis) of the same compound?
**A.** 10^9 CCUs and 10^7 CCUs and 10^3 CCUs

**Q.** And the color changing units (S. floricola)?
**A.** 10^9 CCUs and 10^6 CCUs

**Q.** And the color changing units (Mycoplasma iowae)?
**A.** 10^8 CCUs and 10^7 CCUs and 10^6 CCUs and 10^5 CCUs and 10^4 CCUs

**Q.** And the “kill of cells by the treatment” value (Mycoplasma iowae)?
**A.** not enough to kill

**Q.** What about the “AYP symptoms of treated plants” value ([2]; 500 ppm citral in water, 500 mL per plant Day 8 and Day 14, three plants, as of Day 108) of the same compound?
**A.** remained symptomless

**Q.** And the “AYP symptoms of treated periwinkles” value ([2]; 500 ppm, 500 mL per plant Day 8 and Day 15, three plants, as of Day 174)?
**A.** remained symptomless

**Q.** And the “delay of symptom development” value ([2]; in vivo)?
**A.** 22 days

**Q.** What about the “effect on cells of X. fastidiosa strains” value ([3]; 250 ppm, 24-hr. treatment) of the same compound?
**A.** killed cells of all 11 strains

**Q.** And the MIC ([3]; 4 grape strains, 2 sycamore strains, and 1 peach strain)?
**A.** 125 µg/mL (≈ 821 µM)

**Q.** And the MIC ([3]; 24 h, strain 2#6, Plum leaf scald)?
**A.** 62.5 µg/mL (≈ 411 µM)

**Q.** What about the MIC ([3]; 24 h, strain 3SV, Pierce's disease of grapevine) of the same compound?
**A.** 125 µg/mL (≈ 821 µM)

**Q.** And the MIC ([3]; 24 h, strain 4#5, Phony disease of peach)?
**A.** 125 µg/mL (≈ 821 µM)

**Q.** And the MIC ([3]; 24 h, strain 4BD2, Pecan leaf scorch)?
**A.** 62.5 µg/mL (≈ 411 µM)

**Q.** And the MIC ([3]; 24 h, strain #6, Oleander leaf scorch)?
**A.** 62.5 µg/mL (≈ 411 µM)

**Q.** And the MIC ([3]; 24 h, strain Cayuga, Pierce's disease of grapevine)?
**A.** 125 µg/mL (≈ 821 µM)

**Q.** And the MIC ([3]; 24 h, strain Melody, Pierce's disease of grapevine)?
**A.** 125 µg/mL (≈ 821 µM)

**Q.** And the MIC ([3]; 24 h, strain SLS#61, Sycamore leaf scorch)?
**A.** 125 µg/mL (≈ 821 µM)

**Q.** What about the MIC ([3]; 24 h, strain SLS-DC, Sycamore leaf scorch) of the same compound?
**A.** 125 µg/mL (≈ 821 µM)

**Q.** What about the MIC ([3]; 24 h, strain Shiraz, Pierce's disease of grapevine) of the same compound?
**A.** 125 µg/mL (≈ 821 µM)

**Q.** What about the MIC ([3]; 24 h, strain Yugo, Pierce's disease of grapevine) of the same compound?
**A.** 62.5 µg/mL (≈ 411 µM)

**Q.** And the MIC ([3]; strains from grape, plum, pecan, and oleander)?
**A.** 62.5 µg/mL (≈ 411 µM)

**Q.** And the “treated vines positive for bacteria (isolation and ELISA)” value (Xylella fastidiosa; other vines, treated Day 206 and Day 213, sampled on Day 252)?
**A.** Four out of 15

**Q.** What about the “treated vines positive for presence of bacteria (isolation and ELISA)” value (Xylella fastidiosa; treated Day 0 and Day 7, sampled on Day 252) of the same compound?
**A.** Three out of 15

**Q.** What about the “average branch length longer than control vines” value [4] of the same compound?
**A.** ~6 inches

**Q.** And the average fruit yield [5]?
**A.** about 4.8 lbs of fruit per vine

**Q.** And the average increased yield [5]?
**A.** about 6.25%

**Q.** What about the “concentration at which phytotoxic” value (grape; grape) of the same compound?
**A.** approximately 5000 ppm

**Q.** And the phytotoxicity in grape (grape)?
**A.** phytotoxicity

**Q.** What about the “weekly observations of treated healthy vines” value (healthy vines) of the same compound?
**A.** no phytoplasma on any plants

**Q.** What about the “citral in growth media that reduced the concentration of E. coli” value (E. coli) of the same compound?
**A.** more than 0.01%

**Q.** And the “citral in growth media with bactericidal effect” value (E. coli)?
**A.** 0.08%
